Laboratory results taken from patent US20250282820A1, “PEPTIDE COMPLEX HAVING TRKB BINDING ACTIVITY” (PEPTIDREAM INC, priority 2022, published 2025).
*1 amine or outer side, *2 acyl side, *3 side chain or, on linkers, in order; H or OH if unused. Where a SMILES comes first, the peptide text is derived from it. Bridges are numbered along the chain shown (N, C = ends). Roman numbers before positions name the chains, in order. [ ]: non-standard residue; d: D form. ξ: configuration not given here. X1 = O=C(OCCOCCOCCOCCOCCOCCOCCOCCOCCOCCOCCOCCOC(=O)[*:2])[*:1]; PEG8 = NCCOCCOCCOCCOCCOCCOCCOCCOCCC(=O)O; 3Pal = N[C@@H](Cc1cccnc1)C(=O)O; ξK = NCCCCC(N)C(=O)O; ξP = O=C(O)C1CCCN1; ξC = NC(CS)C(=O)O

How the values were obtained:
Assay type in all cases: cell-based
[1] = target: T1, TrkB (CellSensor TrkB-NFAT-bla CHO-K1 Cell) (Homo sapiens, UniProt Q16620); assay: NFAT transcriptional reporter assay for TrkB agonist activity; conditions: class = peptide concentration giving 50% or more activity; BDNF maximum signal = 100%, no stimulation = 0%; 5 hours culture
T1 construct: host or cells: CHO-K1 (CellSensor TrkB-NFAT-bla CHO-K1)
T1 sequence (Q16620 32-822): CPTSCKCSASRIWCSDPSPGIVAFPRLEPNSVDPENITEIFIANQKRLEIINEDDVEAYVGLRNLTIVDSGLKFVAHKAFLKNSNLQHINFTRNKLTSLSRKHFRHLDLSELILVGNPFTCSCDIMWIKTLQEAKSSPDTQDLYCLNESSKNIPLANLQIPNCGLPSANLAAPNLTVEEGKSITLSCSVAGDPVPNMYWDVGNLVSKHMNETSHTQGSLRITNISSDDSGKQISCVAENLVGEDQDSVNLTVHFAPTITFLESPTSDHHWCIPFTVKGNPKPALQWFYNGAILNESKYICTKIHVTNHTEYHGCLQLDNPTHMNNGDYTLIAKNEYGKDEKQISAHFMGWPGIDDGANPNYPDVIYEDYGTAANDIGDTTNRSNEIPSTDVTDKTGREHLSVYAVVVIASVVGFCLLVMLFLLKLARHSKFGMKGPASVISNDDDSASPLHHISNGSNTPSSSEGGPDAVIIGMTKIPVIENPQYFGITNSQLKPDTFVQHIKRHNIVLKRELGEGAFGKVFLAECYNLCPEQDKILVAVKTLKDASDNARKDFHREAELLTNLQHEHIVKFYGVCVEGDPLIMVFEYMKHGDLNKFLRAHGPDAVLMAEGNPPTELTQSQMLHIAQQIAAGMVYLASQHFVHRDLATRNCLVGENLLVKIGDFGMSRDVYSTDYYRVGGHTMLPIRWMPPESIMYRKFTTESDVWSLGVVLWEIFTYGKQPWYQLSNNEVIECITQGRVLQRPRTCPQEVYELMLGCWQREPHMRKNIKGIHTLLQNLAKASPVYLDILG
Protocol: To evaluate the TrkB activation potency of the TrkB agonist peptide of the present invention, transcriptional activity was examined using transcriptional reporters. The CellSensor (registered trademark) TrkB-NFAT-bla CHO-K1 Cell (Invitrogen) used in the AlphaLISA assay was cultured in the medium above. After the cells were detached using Accutase (Innovative Cell Technologies), the cells were suspended in an assay medium, wherein Blasticidin and Zeocin were removed, then seeded into a 96-well plate for adherent cultures at 12,500 cells per well and cultured overnight. Then, BDNF or a peptide was added thereto, and the cells were further cultured in a CO2 incubator for 5 hours. After the 96-well plate was removed from the incubator and brought to room temperature, a detection reagent (LiveBLAzer (registered trademark)-FRET B/G (CCF4-AM) Substrate Mixture) was added while protected from the light, and the 96-well plate was incubated while protected from the light in a moisture box with a lid for 2 hours. For signal detection, a EnVision 2104 Multilabel Plate Reader (PerkinElmer) was used, and the ratio of fluorescence emission value (460 nm/535 nm) was calculated. The obtained numerical values were analyzed with GraphPad Prism, and the activity (%) was calculated with the maximum value of the signals induced by BDNF as 100% and a signal with no stimulation as 0%. The peptide with 50% or more activity when 1 nM of the peptide was added was evaluated as A, the peptide with 50% or more activity when 10 nM of the peptide was added was evaluated as B, and the peptide with 50% or more activity when 100 nM of the peptide was added was evaluated as C. Those that were not evaluated were listed as not tested.
The BDNF was evaluated at 7 points (0.0024 nM to 10 nM) from 10 nM using 4-fold dilutions.
For dimer structures Nos. 1 to 3, the peptide was evaluated at 1 nM, 10 nM, and 100 nM, and, for other dimer structure numbers, the peptide was evaluated at 0.1 nM, 1 nM, and 10 nM. When creating the concentration dependence curve, the BDNF and the peptides were evaluated at […] (0.006 nM to 100 nM) […] using 4-fold dilutions.

[2] = target: T1, TrkB (CellSensor TrkB-NFAT-bla CHO-K1 Cell); assay: pERK1/2 AlphaLISA assay (phosphorylation of ERK) for TrkB agonist activity; conditions: class = peptide concentration giving 50% or more activity; BDNF maximum signal = 100%, no stimulation = 0%; 15 minutes of stimulation
Protocol: To evaluate the TrkB activation potency of the TrkB agonist peptide of the present invention, the phosphorylation of ERK was examined. CellSensor (registered trademark) TrkB-NFAT-bla CHO-K1 Cell (Invitrogen) was cultured in DMEM, high glucose, GlutaMAX (registered trademark) Supplement, and pyruvate (Thermo), comprising 10% FBS (Thermo) and 1× Non-essential amino acids (Thermo), 25 mM HEPES (Thermo), 50 ug/mL Gentamicin, 5 ug/mL Blasticidin (Thermo), and 200 ug/mL Zeocin (Thermo). After the cells were detached using Accutase (Innovative Cell Technologies), they were seeded into a 96-well plate for adherent cultures at 12,500 cells per well and cultured overnight. The next day, for starvation, the culture solution above was replaced with a nutrient starvation medium comprising 0.1% BSA (Sigma), wherein FBS, Blasticidin, and Zeocin were removed from the culture medium, and culturing was performed for 4 hours. Thereafter, Recombinant Human BDNF Protein (R&D Systems) or a peptide was added, and after 15 minutes of stimulation, cells were lysed in the Lysis Buffer provided with the AlphaLISA SureFire Ultra p-Erk1/2 (Thr202/Tyr204) assay kit (PerkinElmer). The assay was performed according to the kit protocol. The signals were detected using a SpectraMax Paradigm Multi-Mode Microplate Reader (Molecular Devices). The obtained signals were analyzed with GraphPad Prism, and the activity (%) was calculated with the maximum value of the signals induced by BDNF as 100% and a signal with no stimulation as 0%. The peptide with 50% or more activity when 1 nM of the peptide was added was evaluated as A, and the peptide with 50% or more activity when 10 nM of the peptide was added was evaluated as B.
The BDNF was evaluated at 8 points (0.0006 nM to 10 nM) from 10 nM using 4-fold dilutions.
For dimer structures Nos. 1 to 3, the peptide was evaluated at 1 nM, 10 nM, and 100 nM, and, for other dimer structure numbers, the peptide was evaluated at 0.1 nM, 1 nM, and 10 nM. When creating the concentration dependence curve, the BDNF and the peptides were evaluated at 8 points (0.006 nM to 100 nM) from 100 nM using 4-fold dilutions.

TrkB = TrkB (Homo sapiens, UniProt Q16620); assay: PathHunter eXpress TrkB Functional Assay (phosphorylation of TrkB); conditions: stimulation for 3 hours; for Emax: maximum signal induced by BDNF = 100%
Chain of TrkB (Q16620 32-822): as above
Protocol: To evaluate the TrkB activation potency of the TrkB agonist peptide of the present invention, the phosphorylation of TrkB was examined. The PathHunter (registered trademark) eXpress TrkB Functional Assay kit (DiscoverX; cells, 96-well plate, medium, and detection reagents included) was used and the evaluation was performed according to the attached protocols. The frozen cells were thawed and suspended in the medium, then seeded into a 96-well plate at 10,000 cells per well and incubated for 48 hours. Thereafter, Recombinant Human BDNF Protein (R&D Systems) or a peptide was added, and after stimulation for 3 hours, a detection reagent was added. The reaction was performed while protected from the light at room temperature for 60 minutes, and luminescent signals were measured using a SpectraMax Paradigm Multi-Mode Microplate Reader (Molecular Devices). The obtained signals were analyzed with GraphPad Prism, and the activity (%) was calculated with the maximum value of the signals induced by BDNF as 100% and a signal with no stimulation as 0%.
The BDNF was evaluated at 8 points (0.006 nM to 100 nM) from 100 nM using 4-fold dilutions. The peptide was evaluated in the measurement ranges A to C shown below. • Measurement range A=6 points from 100 nM using 5-fold dilutions (0.032 nM to 100 nM) • Measurement range B=8 points from 100 nM using 4-fold dilutions (0.006104 nM to 100 nM) • Measurement range C=4 points from 10 nM using 10-fold dilutions (0.01 nM to 10 nM)

SMILES	NFAT Assay Results [1]	pERK (aLISA) Assay Results [2]	Emax (TrkB)	EC50 (TrkB)
CC(C)[C@@H]1NC(=O)[C@H](Cc2cccnc2)NC(=O)[C@H](CCC(=O)O)NC(=O)[C@H](CO)NC(=O)[C@H](Cc2ccc(O)cc2)NC(=O)[C@H]([C@@H](C)O)NC(=O)[C@@H]2CCCN2C(=O)[C@H](Cc2c[nH]c3ccccc23)NC(=O)[C@H](Cc2cccnc2)NC(=O)[C@H](Cc2ccc(O)cc2)NC(=O)[C@@H]2CCCN2C(=O)[C@H](CCC(=O)O)NC(=O)[C@H](Cc2ccccc2)NC(=O)CSCC(C(=O)NCC(=O)N[C@@H](CCCCNC(=O)OCCOCCOCCOCCOCCOCCOCCOCCOCCOCCOCCOCCOC(=O)NCCCCC(NC(=O)CNC(=O)[C@@H]2CSCC(=O)N[C@@H](Cc3ccccc3)C(=O)N[C@@H](CCC(=O)O)C(=O)N3CCCC3C(=O)N[C@@H](Cc3ccc(O)cc3)C(=O)N[C@@H](Cc3cccnc3)C(=O)N[C@@H](Cc3c[nH]c4ccccc34)C(=O)N3CCCC3C(=O)N[C@@H]([C@@H](C)O)C(=O)N[C@@H](Cc3ccc(O)cc3)C(=O)N[C@@H](CO)C(=O)N[C@@H](CCC(=O)O)C(=O)N[C@@H](Cc3cccnc3)C(=O)N[C@@H](C(C)C)C(=O)N[C@@H](CCC(=O)O)C(=O)N2)C(N)=O)C(N)=O)NC(=O)[C@H](CCC(=O)O)NC1=O (stereo partly shown) [Dimer Structure No. 57] (I: {CH2CO}-FEPY[3Pal]WPTYSE[3Pal]VE[ξC]GK-NH2 / II: {CH2CO}-FE[ξP]Y[3Pal]W[ξP]TYSE[3Pal]VECG[ξK]-NH2; linker I:17-II:17 via X1; thioether I:N-I:15, II:N-II:15)	B (the peptide with 50% or more activity when 10 nM of the peptide was added was evaluated as B)	B (the peptide with 50% or more activity when 10 nM of the peptide was added was evaluated as B)	89%	0.8 to 4 nM
CC(C)C[C@@H]1NC(=O)[C@H](Cc2ccccc2)NC(=O)CSC[C@@H](C(=O)NCC(=O)NCCOCCOCCOCCOCCOCCOCCOCCOCCC(=O)NCCCC[C@H](NC(=O)CCOCCOCCOCCOCCOCCOCCOCCOCCNC(=O)CNC(=O)[C@@H]2CSCC(=O)N[C@@H](Cc3ccccc3)C(=O)N[C@@H](CC(C)C)C(=O)N3CCC[C@H]3C(=O)N[C@@H](Cc3ccc(O)cc3)C(=O)N[C@@H](Cc3cccnc3)C(=O)N[C@@H](Cc3c[nH]c4ccccc34)C(=O)N3CCC[C@H]3C(=O)N[C@@H]([C@@H](C)O)C(=O)N[C@@H](Cc3ccc(O)cc3)C(=O)N[C@@H](CO)C(=O)N[C@@H](CCC(=O)O)C(=O)N[C@@H](Cc3cccnc3)C(=O)N[C@@H](C(C)C)C(=O)N[C@@H](CCC(=O)O)C(=O)N2)C(N)=O)NC(=O)[C@H](CCC(=O)O)NC(=O)[C@H](C(C)C)NC(=O)[C@H](Cc2cccnc2)NC(=O)[C@H](CCC(=O)O)NC(=O)[C@H](CO)NC(=O)[C@H](Cc2ccc(O)cc2)NC(=O)[C@H]([C@@H](C)O)NC(=O)[C@@H]2CCCN2C(=O)[C@H](Cc2c[nH]c3ccccc23)NC(=O)[C@H](Cc2cccnc2)NC(=O)[C@H](Cc2ccc(O)cc2)NC(=O)[C@@H]2CCCN2C1=O [compound 14] (I: {CH2CO}-FLPY[3Pal]WPTYSE[3Pal]VECG[PEG8]K-NH2 / II: {CH2CO}-FLPY[3Pal]WPTYSE[3Pal]VECG[PEG8]; amide I:18-II:C (inferred); thioether I:N-I:15, II:N-II:15 (inferred))	A (The peptide with 50% or more activity when 1 nM of the peptide was added was evaluated as A)	A (The peptide with 50% or more activity when 1 nM of the peptide was added was evaluated as A)	86%	
CC(C)[C@@H]1NC(=O)[C@H](Cc2cccnc2)NC(=O)[C@H](CCC(=O)O)NC(=O)[C@H](CO)NC(=O)[C@H](Cc2ccc(O)cc2)NC(=O)[C@H]([C@@H](C)O)NC(=O)[C@@H]2CCCN2C(=O)[C@H](Cc2c[nH]c3ccccc23)NC(=O)[C@H](Cc2cccnc2)NC(=O)[C@H](Cc2ccc(O)cc2)NC(=O)[C@@H]2CCCN2C(=O)[C@H](CO)NC(=O)[C@H](Cc2ccccc2)NC(=O)CSC[C@@H](C(=O)NCC(=O)NCCOCCOCCOCCOCCOCCOCCOCCOCCC(=O)NCCCC[C@H](NC(=O)CCOCCOCCOCCOCCOCCOCCOCCOCCNC(=O)CNC(=O)[C@@H]2CSCC(=O)N[C@@H](Cc3ccccc3)C(=O)N[C@@H](CO)C(=O)N3CCC[C@H]3C(=O)N[C@@H](Cc3ccc(O)cc3)C(=O)N[C@@H](Cc3cccnc3)C(=O)N[C@@H](Cc3c[nH]c4ccccc34)C(=O)N3CCC[C@H]3C(=O)N[C@@H]([C@@H](C)O)C(=O)N[C@@H](Cc3ccc(O)cc3)C(=O)N[C@@H](CO)C(=O)N[C@@H](CCC(=O)O)C(=O)N[C@@H](Cc3cccnc3)C(=O)N[C@@H](C(C)C)C(=O)N[C@@H](CCC(=O)O)C(=O)N2)C(N)=O)NC(=O)[C@H](CCC(=O)O)NC1=O [compound 15] (I: {CH2CO}-FSPY[3Pal]WPTYSE[3Pal]VECG[PEG8]K-NH2 / II: {CH2CO}-FSPY[3Pal]WPTYSE[3Pal]VECG[PEG8]; amide I:18-II:C (inferred); thioether I:N-I:15, II:N-II:15 (inferred))	A (The peptide with 50% or more activity when 1 nM of the peptide was added was evaluated as A)	A (The peptide with 50% or more activity when 1 nM of the peptide was added was evaluated as A)	104%	
